Data taken from the NIST ThermoML archive (doi:10.1021/je3013205).

Assay: xn = mol fraction of the nth substance listed
Conditions: 101 kPa, Liquid, Vibrating tube method

CC(C)O [propan-2-ol] + NCCO
x1 = 1
Conditions	mass density [kg/m3]
283.15 K	794.005
293.15 K	785.764
303.15 K	777.284
313.15 K	768.476
323.15 K	759.309
333.15 K	749.679
343.15 K	739.528

NCCOCCO [2-(2-aminoethoxy)ethanol] + CO
mass density [kg/m3]
Conditions	x2 = 0	x2 = 0.0999	x2 = 0.1999	x2 = 0.3001	x2 = 0.4	x2 = 0.5	x2 = 0.6002	x2 = 0.6999	x2 = 0.8	x2 = 0.9001
283.15 K	1063.9	1055.89	1046	1034.44	1019.81	1002.23	980.617	953.558	916.98	868.243
293.15 K	1055.86	1047.82	1037.87	1026.25	1011.56	993.898	972.194	945.032	908.292	859.298
303.15 K	1047.8	1039.72	1029.71	1018.04	1003.27	985.526	963.722	936.443	899.545	850.287
313.15 K	1039.73	1031.59	1021.52	1009.78	995.032	977.101	955.185	927.795	890.727	841.205
323.15 K	1031.63	1023.41	1013.29	1001.48	986.54	968.618	946.586	919.061	881.797	832.01
333.15 K	1023.46	1015.19	1004.99	993.102	978.075	960.052	937.892	910.228	872.764	822.672

NCCO [2-aminoethan-1-ol] + OCCO
mass density [kg/m3]
Conditions	x2 = 0	x2 = 0.1002	x2 = 0.2	x2 = 0.2998	x2 = 0.3999	x2 = 0.5001	x2 = 0.5999	x2 = 0.7	x2 = 0.8002	x2 = 0.8999
283.15 K	1024.11	1035.45	1046.35	1056.77	1066.86	1076.47	1085.82	1094.87	1103.84	1112.47
293.15 K	1016.23	1027.68	1038.7	1049.24	1059.48	1069.16	1078.59	1087.73	1096.76	1105.44
303.15 K	1008.32	1019.88	1031.01	1041.67	1052.04	1061.82	1071.33	1080.56	1089.64	1098.37
313.15 K	1000.37	1012.03	1023.26	1034.05	1044.53	1054.42	1064.02	1073.32	1082.46	1091.24
323.15 K	992.364	1004.13	1015.46	1026.35	1036.96	1046.93	1056.62	1066.01	1075.21	1084.05
333.15 K	984.301	996.181	1007.58	1018.58	1029.3	1039.37	1049.14	1058.6	1067.87	1076.77
343.15 K	976.153	988.118	999.618	1010.71	1021.54	1031.7	1041.55	1051.09	1060.42	1069.37

NCCOCCO [2-(2-aminoethoxy)ethanol] + OCCO
mass density [kg/m3]
Conditions	x2 = 0	x2 = 0.0999	x2 = 0.1998	x2 = 0.2998	x2 = 0.4001	x2 = 0.4999	x2 = 0.5999	x2 = 0.7002	x2 = 0.8	x2 = 0.8998
283.15 K	1063.9	1069.41	1074.47	1079.73	1084.82	1090.24	1095.7	1101.26	1107.46	1113.95
293.15 K	1055.86	1061.43	1066.58	1071.94	1077.11	1082.67	1088.26	1093.92	1100.25	1106.86
303.15 K	1047.8	1053.44	1058.65	1064.1	1069.38	1075.06	1080.79	1086.54	1093	1099.72
313.15 K	1039.73	1045.41	1050.69	1056.23	1061.6	1067.42	1073.26	1079.13	1085.7	1092.53
323.15 K	1031.63	1037.35	1042.69	1048.31	1053.78	1059.7	1065.66	1071.68	1078.32	1085.26
333.15 K	1023.46	1029.22	1034.63	1040.32	1045.89	1051.9	1057.97	1064.11	1070.86	1077.9
343.15 K	1015.24	1021.03	1026.5	1032.27	1037.92	1044.03	1050.2	1056.51	1063.3	1070.45

CO [methanol] + NCCOCCO
x1 = 1
Conditions	mass density [kg/m3]
283.15 K	801.254
293.15 K	791.866
303.15 K	782.43
313.15 K	772.902
323.15 K	763.244
333.15 K	753.389

NCCO [2-aminoethan-1-ol] + CO
mass density [kg/m3]
Conditions	x2 = 0	x2 = 0.0999	x2 = 0.2	x2 = 0.3001	x2 = 0.4	x2 = 0.5	x2 = 0.6001	x2 = 0.7026	x2 = 0.7998	x2 = 0.8999
283.15 K	1024.11	1012.96	1000.24	985.644	969.73	951.484	930.19	904.556	875.763	841.316
293.15 K	1016.23	1005	992.199	977.53	961.548	943.204	921.795	895.978	867.002	832.282
303.15 K	1008.32	997.005	984.108	969.37	953.296	934.844	913.321	887.345	858.177	823.2
313.15 K	1000.37	988.961	975.96	961.142	944.973	926.41	904.767	878.633	849.26	814.016
323.15 K	992.364	980.886	967.788	952.855	936.722	917.891	896.116	869.812	840.244	804.724
333.15 K	984.301	972.713	959.607	944.613	928.096	909.268	887.352	860.859	831.072	795.281

CO [methanol] + NCCO
x1 = 1
Conditions	mass density [kg/m3]
283.15 K	801.254
293.15 K	791.866
303.15 K	782.43
313.15 K	772.902
323.15 K	763.244
333.15 K	753.389

CC(C)O [propan-2-ol] + NCCOCCO
x1 = 1
Conditions	mass density [kg/m3]
283.15 K	794.005
293.15 K	785.764
303.15 K	777.284
313.15 K	768.476
323.15 K	759.309
333.15 K	749.679
343.15 K	739.528

NCCOCCO [2-(2-aminoethoxy)ethanol] + CC(C)O
mass density [kg/m3]
Conditions	x2 = 0	x2 = 0.1002	x2 = 0.2002	x2 = 0.2999	x2 = 0.3998	x2 = 0.5001	x2 = 0.6	x2 = 0.7001	x2 = 0.7999	x2 = 0.9
283.15 K	1063.9	1045.45	1024.83	1002.4	978.848	953.526	926.557	896.824	864.765	830.522
293.15 K	1055.86	1037.41	1016.77	994.333	970.775	945.419	918.428	888.658	856.572	822.302
303.15 K	1047.8	1029.32	1008.68	986.21	962.634	937.23	910.206	880.385	848.24	813.893
313.15 K	1039.73	1021.21	1000.54	978.03	954.426	928.957	901.852	871.966	839.727	805.266
323.15 K	1031.63	1013.07	992.342	969.77	946.127	920.579	893.378	863.375	831.011	796.354
333.15 K	1023.46	1004.87	984.07	961.425	937.625	912.056	884.74	854.584	822.035	787.116
343.15 K	1015.24	996.578	975.712	952.983	929.152	903.381	875.931	845.569	812.769	777.485

NCCO [2-aminoethan-1-ol] + CC(C)O
mass density [kg/m3]
Conditions	x2 = 0	x2 = 0.1001	x2 = 0.1999	x2 = 0.3002	x2 = 0.4001	x2 = 0.5001	x2 = 0.5999	x2 = 0.7	x2 = 0.8002	x2 = 0.8999
283.15 K	1024.11	999.024	974.32	949.806	925.587	902.006	879.054	856.17	834.572	813.792
293.15 K	1016.23	990.993	966.334	941.791	917.446	893.95	870.943	848.018	826.391	805.582
303.15 K	1008.32	982.903	958.311	933.723	909.315	885.794	862.727	839.735	818.066	797.19
313.15 K	1000.37	974.928	950.234	925.597	901.039	877.533	854.388	831.308	809.555	788.57
323.15 K	992.364	966.92	942.073	917.361	892.673	869.138	845.897	822.707	800.81	779.665
333.15 K	984.301	958.72	933.821	909.018	884.471	860.597	837.216	813.881	791.784	770.393
343.15 K	976.153	950.596	925.458	900.544	875.887	851.867	828.323	804.773	782.457	760.722

OCCO [1,2-ethanediol] + NCCO
x1 = 1
Conditions	mass density [kg/m3]
283.15 K	1119.29
293.15 K	1112.37
303.15 K	1105.39
313.15 K	1098.34
323.15 K	1091.21
333.15 K	1083.99
343.15 K	1076.65

OCCO [1,2-ethanediol] + NCCOCCO
x1 = 1
Conditions	mass density [kg/m3]
283.15 K	1119.29
293.15 K	1112.37
303.15 K	1105.39
313.15 K	1098.34
323.15 K	1091.21
333.15 K	1083.99
343.15 K	1076.65
